Test results reported in patent US20090053695A1, “Gene Marker and Use Thereof” (priority 2004, published 2009).

System: gene markers (Tap1 or Ctss)
Assay: Temporal changes in blood expression levels of Tap1 and Ctss after heart transplantation (Example 5, FIG. 4)
Assay type: in vivo, rat
Details: s.c. daily dosing as in Example 2; blood mRNA to post-transplantation day 4, relative to pre-transplantation level (as 1)
Experimental: To precisely examine changes in the expression level of each of the genes selected here, their mRNAs were quantified. For Irf1, Psmb9, Nos2, and Pim1, the mRNA was quantified by using 25 ng of extracted mRNA together with each primer and probe shown in Table 1, synthesizing cDNA with TaqMan Reverse Transcription Reagents (manufactured by Applied Biosystems) under the conditions shown in Table 1, on an ABI PRISM 7900HT Detection System (manufactured by Applied Biosystems), and using β-actin as an internal control. For Tap1 and Ctss, mRNA was quantified by using 25 ng of extracted mRNA together with each primer and probe (final concentrations: […] each primer, 250 nM TaqMan probe; TaqMan Gene Expression Assays Rn00709612_ml (Tap1) or Rn00569036_ml (Ctss), Applied Biosystems), synthesizing cDNA with TaqMan Reverse Transcription Reagents (manufactured by Applied Biosystems) on an ABI PRISM 7900HT Detection System (manufactured by Applied Biosystems), and using β-actin as an internal control. […]

C=CC[C@@H]1/C=C(\C)C[C@H](C)C[C@H](OC)[C@H]2O[C@@](O)(C(=O)C(=O)N3CCCC[C@H]3C(=O)O[C@H](/C(C)=C/[C@@H]3CC[C@@H](O)[C@H](OC)C3)[C@H](C)[C@@H](O)CC1=O)[C@H](C)C[C@@H]2OC [tacrolimus]
expression levels of the gene markers Tap1 and Ctss compared with the rejection group: suppressed compared with the rejection group, to the level similar to or lower than that of the non-rejection group
